Data reported in patent publication US20080020932A1, “Method for Combating Weeds” (Bayer Cropscience AG, priority 2004, published 2008).

Tested on: Apera spica-venti
Experiment: Postemergence field trials in winter wheat: herbicidal activity
Type: in vivo
Details: field trials carried out
Procedure: The compound of the formula (I) was tested under field conditions in Winter wheat in Germany and Poland against the economically significant weed Apera spica-venti. The plot trials were instituted on cultivated land used agriculturally, and the conditions of cultivation and climate can be regarded as being representative over the period under investigation. Areas with a particularly high weed population were selected preferentially.
The active ingredient was applied postemergence (spring) across the area by spraying with a medium droplet size. An appropriate preparation of active ingredient was produced by formulating the active ingredient as a 10 WP (10% w/w water-dispersible powder), mixed with the safener mefenpyr-diethyl as a 15 WG (15% w/w water-dispersible granules) and with alkyl ether sulfates as an additive, and applied with customary amounts of water.
For the assessment of crop tolerance, instances of plant growth inhibition or lightening of the leaf area were rated in % damage in comparison to the development of the untreated control, 1 to 7 weeks after treatment. The herbicidal activity was assessed at a number of times after treatment, based on the development of weeds, as a % reduction in comparison to the untreated control. For these purposes: • 0%=no damage to crop or no herbicidal action; • 100%=total destruction of the crop or of the weeds, respectively.

Q: How did the “control of the annual varieties of Apera spica-venti in cereals (in words)” value turn out when COC(=O)c1csc(C)c1S(=O)(=O)NC(=O)n1nc(OC)n(C)c1=O [compound of the formula (I), 5-methoxy-4-methyl-2-[(4-methoxycarbonyl-2-methylthien-3-yl)sulfonylaminocarbonyl]-2,4-dihydro-3H-1,2,4-triazol-3-one] was run?
A: particularly effective
